Assay results taken from patent publication US20110112187A1, “Use Of Tranilast And Derivatives Thereof For The Therapy Of Neurological Conditions” (priority 2007, published 2011).

System: SH-SY5Y neuronal cells
Test: In vitro anti-apoptosis assay (Caspase-Glo 3/7, staurosporine induced apoptosis)
Type: cell-based, human
Conditions: for apoptosis (caspase-3/7 luminescence) relative to staurosporine: 5 h
Experimental: Neuroprotection is attainable via the inhibition of apoptosis of affected neurons. The anti-apoptotic effect of tranilast and its derivatives can be assayed in vitro by measuring the caspase-3 and caspase-7 activities. These members of the cysteine aspartic acid-specific protease (caspase) family play key effector roles in apoptosis in mammalian cells. Cortical neurons have to be isolated and subsequently cultivated in a suitable culture medium. The cells have to be incubated with the test compound in the presence of an apoptotic substance such as staurosporine. Parallel approaches with staurosporine alone and sham treatment of the cells serve as […] controls. The assay allows evaluating whether the test compound can compensate either completely or partially for the apoptotic effect of staurosporine. This assay is suitable to assess the neuroprotective activity of tranilast and derivatives thereof, but also can be used to screen for other potential neuroprotective compounds. Preferably, such a screening can be used to test compounds which are already known to be suitable as a medicament in terms of its toxicology, bioavailability, solubility, stability etc.
The neuroprotective effect of compounds can be assayed in vitro by measuring caspase-3 and caspase-7 activities. These members of the cysteine aspartic acid-specific protease (caspase) family play a key effector role in apoptosis in mammalian cells.
The human neuroblastoma cell-line SH-SY5Y (American Type Culture Collection) maintained in DMEM with high glucose supplemented with 20% FBS was used for the apoptosis assay. Alternatively one can analyse the apoptosis of primary cortical neurons which can be isolated from E18 rats and subsequently cultivated in suitable culture medium. 2.5×10^4 SH-SY5Y cells were seeded in 96-well plates and stimulated 24 h later with tranilast or vehicle in the presence of the apoptosis inducing compound staurosporine (0.5 μM, Calbiochem). After 5 h incubation at 37° C., caspase-Glo 3/7 reagent (Promega) containing luciferase and luminogenic substrate was added to the cells. The cleavage of the substrate by caspase-3 and caspase-7 was detected 30 min later using a luminometer (Berthold Technologies, Mithras LB 940). The Luminescence which is proportional to the amount of caspase activity serves as a measure for the apoptosis of the treated neurons. Tranilast was tested in a range from 0.8 μM to 100 μM final concentration.
Analogously to Example 3, various derivatives of tranilast (N-(3′,4′-methylenedioxycinnamoyl)-anthranilic acid (FIG. 2a (ChemBridge Corporation)), 2-(3′,4′-dimethoxycinnamoylamino)-toluene (FIG. 2b (ChemBridge Corporation)), N-cinnamoyl-anthranilic acid (FIG. 2c (ChemBridge Corporation)), and 2-(3′,4′-dimethoxycinnamoylamino)-anisole (FIG. 2d (Ambinter SARL))) have been analysed for their anti-apoptotic activity. The SH-SY5Y cells have been incubated with these derivatives (1 μM) either alone or in the presence of staurosporine (0.5 μM). Incubation with staurosporine (0.5 μM) alone served as positive control and incubation with vehicle served as negative control. In the case of 3-(4′-chlorocinnamoylamino)-anisole (FIG. 2e (Sigma)) the SH-SY5Y cells have been incubated with this derivative (1 μM) either alone or in the presence of staurosporine […]. Accordingly, incubation with staurosporine […] alone served as positive control and incubation with vehicle served as negative control. The degree of apoptosis relative to the staurosporine control is shown in FIG. 4 a (vehicle (sham): 9% staurosporine (SP): 100%; tranilast: 8%; tranilast plus staurosporine: 75%; derivative A: 3%; derivative A plus staurosporine: 27%; derivative B: 7%; derivative B plus staurosporine: 79%; derivative C: 2%; derivative C plus staurosporine: 20%; derivative D: 7%; derivative D plus staurosporine: 80%) and FIG. 4 b (vehicle (sham): 13%; staurosporine: 100%; derivative E: 6%; derivative E plus staurosporine: 25%).

Compound: COc1ccc(/C=C/C(=O)Nc2ccccc2C(=O)O)cc1OC [tranilast, 2-((3-(3,4-dimethoxyphenyl)-1-oxo-2-propenyl)amino)benzoic acid]
- apoptosis (caspase-3/7 luminescence) relative to staurosporine (0.8 μM tranilast plus 0.5 μM staurosporine): 84%
- apoptosis (caspase-3/7 luminescence) relative to staurosporine (1.6 μM tranilast plus 0.5 μM staurosporine): 74%
- apoptosis (caspase-3/7 luminescence) relative to staurosporine (3.1 μM tranilast plus 0.5 μM staurosporine): 76%
- apoptosis (caspase-3/7 luminescence) relative to staurosporine (6.3 μM tranilast plus 0.5 μM staurosporine): 74%
- apoptosis (caspase-3/7 luminescence) relative to staurosporine (12.5 μM tranilast plus 0.5 μM staurosporine): 58%
- apoptosis (caspase-3/7 luminescence) relative to staurosporine (25 μM tranilast plus 0.5 μM staurosporine): 46%
- apoptosis (caspase-3/7 luminescence) relative to staurosporine (50 μM tranilast plus 0.5 μM staurosporine): 30%
- apoptosis (caspase-3/7 luminescence) relative to staurosporine (100 μM tranilast plus 0.5 μM staurosporine): 15%
- anti-apoptotic effect: reduction of the staurosporine induced apoptosis (co-incubation with staurosporine): significant reduction of the staurosporine induced apoptosis
- degree of apoptosis relative to the staurosporine control (compound 1 μM alone, FIG. 4a (control staurosporine 0.5 μM)): 8%
- degree of apoptosis relative to the staurosporine control (compound 1 μM plus staurosporine 0.5 μM, FIG. 4a): 75%
